Reference: patent US20110112151A1, “COMPOUND CAPABLE OF INHIBITING 11-BETA HYDROXYSTERIOD DEHYDROGENASE” (priority 2008, published 2011)

Legend:
[1] = target: T1, 11β-HSD1 (Homo sapiens, UniProt P28845); assay: 11β-HSD1 HEK assay (cell based assay, SPA); settings: HEK293; at 1 μM; whole HEK 293 cells stably transfected with the HSD11B1 gene, 3H-cortisone substrate; read-out: Activity (inhibition of 11β-HSD1)
T1 construct: expressed in transfected cells; host or cells: HEK 293 (stably transfected, HEK 293/HSD11B1)
T1 sequence (P28845 whole entry): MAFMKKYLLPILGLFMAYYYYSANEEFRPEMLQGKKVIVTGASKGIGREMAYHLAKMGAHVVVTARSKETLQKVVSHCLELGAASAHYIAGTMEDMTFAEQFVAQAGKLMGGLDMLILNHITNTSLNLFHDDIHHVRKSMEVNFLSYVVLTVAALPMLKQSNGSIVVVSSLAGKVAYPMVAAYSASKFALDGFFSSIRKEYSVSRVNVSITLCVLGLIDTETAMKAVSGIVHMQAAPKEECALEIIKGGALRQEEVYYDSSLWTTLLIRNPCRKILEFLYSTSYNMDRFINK
Experimental: 11β-HSD1 HEK Assay Protocol (Cell Based Assay)
11β-HSD1 activity is measured in whole HEK 293 cells stably transfected with the HSD11B1 gene. Cells are incubated in 96-well microplates in the presence of tritiated substrate. Enzyme activity is determined by measuring the amount of tritated product by scintillation proximity assay (SPA). Assay plates contain internal high and low controls to allow calculation of percentage inhibition.
1. […] 2. When the cells are 80% confluent the medium is removed from each well. 100 μl fresh, serum-free, medium containing ^3H-cortisone and test compound in 1% DMSO is added to each well*. Control wells are also dispensed. […] 3. The plate is incubated at 37° C. for the required time period. 4. 50 μl of media is removed from each well and transferred to a microplate containing 100 μl of a pre-incubated mixture of anti-cortisol antibody and SPA bead. The mixture is incubated with gentle shaking until equilibrium is reached, before transferring to a scintillation counter to establish the enzyme activity in each sample.
10 μl of compound is dispensed into each well of a 96-well microplate in 10% DMSO at 100 μM concentration. 90 μl media containing ^3H-cortisone is added to each well. The compound/media/substrate mixture is then transferred to the assay plate containing the cells. […]

Row | inhibition at 1 µM [1] [%] | melting point [°C] | SMILES
1 | > 60 | 109 to 111 | COCc1nnc(SCC(=O)C23CC4CC(CC(C4)C2)C3)n1C [Example 107, 1-(Adamantan-1-yl)-2-{[5-(methoxymethyl)-4-methyl-4H-1,2,4-triazol-3-yl]sulfanyl}ethan-1-one]
2 | < 20 | 187 to 188 | O=C(CSc1n[nH]c(-c2ccccc2)n1)C12CC3CC(CC(C3)C1)C2 [Example 89, 1-(Adamantan-1-yl)-2-[(5-phenyl-1H-1,2,4-triazol-3-yl)sulfanyl]ethanone]
3 | > 60 | 133.5 to 135 | CSc1nnc(SCC(=O)C23CC4CC(CC(C4)C2)C3)s1 [Example 106, 1-(Adamantan-1-yl)-2-{[5-(methylsulfanyl)-1,3,4-thiadiazol-2-yl]sulfanyl}ethan-1-one]
4 | > 60 | 119 to 120.5 | Cc1nnc(SCC(=O)C23CC4CC(CC(C4)C2)C3)n1C(C)C [Example 103, 1-(Adamantan-1-yl)-2-{[5-methyl-4-(propan-2-yl)-4H-1,2,4-triazol-3-yl]sulfanyl}ethan-1-one]
5 | 20 to 60 | 158 to 159 | Cc1nnc(SCC(=O)C23CC4CC(CC(C4)C2)C3)n1Cc1ccc(Cl)cc1 [Example 105, 1-(Adamantan-1-yl)-2-({4-[(4-chlorophenyl)methyl]-5-methyl-4H-1,2,4-triazol-3-yl}sulfanyl)ethan-1-one]
6 | > 60 | 156 to 157 | Cn1c(SCC(=O)C23CC4CC(CC(C4)C2)C3)nnc1-c1cccs1 [Example 102, 1-(Adamantan-1-yl)-2-{[4-methyl-5-(thiophen-2-yl)-4H-1,2,4-triazol-3-yl]sulfanyl}ethan-1-one]
7 | 20 to 60 | 218 to 219 | O=C(Nc1nnc(SCC(=O)C23CC4CC(CC(C4)C2)C3)s1)C1CC1 [Example 95, N-(5-{[2-(Adamantan-1-yl)-2-oxoethyl]sulfanyl}-1,3,4-thiadiazol-2-yl)cyclopropanecarboxamide]
8 | > 60 | 208 to 210 | CC(=O)Nc1nnc(SCC(=O)C23CC4CC(CC(C4)C2)C3)s1 [Example 91, N-(5-{[2-(Adamantan-1-yl)-2-oxoethyl]sulfanyl}-1,3,4-thiadiazol-2-yl)acetamide]
9 | > 60 | 209 to 211 | O=C(Nc1nnc(S(=O)(=O)CC(=O)C23CC4CC(CC(C4)C2)C3)s1)C1CC1 [Example 97, N-(5-{[2-(Adamantan-1-yl)-2-oxoethane]sulfonyl}-1,3,4-thiadiazol-2-yl)cyclopropanecarboxamide]
10 | > 60 | 198 to 199 | Nc1nnc(SCC(=O)C23CC4CC(CC(C4)C2)C3)s1 [Example 88, 1-(Adamantan-1-yl)-2-[(5-amino-1,3,4-thiadiazol-2-yl)sulfanyl]ethanone]

The next lines start with the compound.

Row | SMILES | inhibition at 1 µM [1] [%] | melting point [°C]
11 | O=C(CS(=O)(=O)Cc1ccc(Cl)nc1)C12CC3CC(CC(C3)C1)C2 [Example 64, 1-Adamantan-1-yl-2-(6-chloro-pyridin-3-ylmethanesulfonyl)-ethanone] | > 60 | 159 to 161
12 | Cc1nnc(SCC(=O)C23CC4CC(CC(C4)C2)C3)n1C [Example 87, 1-(Adamantan-1-yl)-2-[(4,5-dimethyl-1,2,4-triazol-3-yl)sulfanyl]ethanone] | > 60 | 113 to 114
13 | O=C(O)c1ccc(SCC(=O)C23CC4CC(CC(C4)C2)C3)nc1 [Example 29, 6-(2-Adamantan-1-yl-2-oxo-ethylsulfanyl)-nicotinic acid] | > 60 | 174 to 176
14 | O=C(CSCc1ccccn1)C12CC3CC(CC(C3)C1)C2 [Example 11, 1-Adamantan-1-yl-2-(pyridin-2-ylmethylsulfanyl)-ethanone] | > 60 | 38 to 39
15 | CCNC(=O)c1ccc(SCC(=O)C23CC4CC(CC(C4)C2)C3)nc1 [Example 34, 6-{[2-(adamantan-1-yl)-2-oxoethyl]sulfanyl}-N-ethylpyridine-3-carboxamide] | > 60 | 135.5 to 137
16 | O=C(CCc1cccnc1)C12CC3CC(CC(C3)C1)C2 [Example 39, 1-Adamantan-1-yl-3-pyridin-3-yl-propan-1-one] | > 60 | 43 to 44.5
17 | Cn1cnnc1[S+]([O-])CC(=O)C12CC3CC(CC(C3)C1)C2 (centres unmarked) [Example 63, 1-Adamantan-1-yl-2-(4-methyl-4H-[1,2,4]triazole-3-sulfinyl)-ethanone] | > 60 | 124.5 to 127
18 | O=C(CS(=O)(=O)c1ccncc1)C12CC3CC(CC(C3)C1)C2 [Example 32, 1-(adamantan-1-yl)-2-(pyridine-4-sulfonyl)ethan-1-one] | > 60 | 143 to 144
19 | O=C(CS(=O)(=O)Cc1ccc[n+]([O-])c1)C12CC3CC(CC(C3)C1)C2 [Example 10, 1-Adamantan-1-yl-2-(1-oxy-pyridin-3-ylmethanesulfonyl)-ethanone] | > 60 | 182 to 183.5
20 | Cn1cnnc1S(=O)(=O)CC(=O)C12CC3CC(CC(C3)C1)C2 [Example 77, 1-Adamantan-1-yl-2-(4-methyl-4H-[1,2,4]triazole-3-sulfonyl)-ethanone] | > 60 | 149 to 150
21 | Cc1cccc(SCC(=O)C23CC4CC(CC(C4)C2)C3)n1 [Example 26, 1-Adamantan-1-yl-2-(6-methyl-pyridin-2-ylsulfanyl)-ethanone] | > 60 | 115.5 to 116.5
22 | O=C(CSc1ccncc1)C12CC3CC(CC(C3)C1)C2 [Example 27, 1-Adamantan-1-yl-2-(pyridin-4-ylsulfanyl)-ethanone] | > 60 | 114 to 115
23 | Cn1ccnc1[S+]([O-])C(C)(C)C(=O)C12CC3CC(CC(C3)C1)C2 (centres unmarked) [Example 15, 1-Adamantan-1-yl-2-methyl-2-(1-methyl-1H-imidazole-2-sulfinyl)-propan-1-one] | < 20 | 98 to 102
24 | O=C(CS(=O)(=O)Cc1cccc[n+]1[O-])C12CC3CC(CC(C3)C1)C2 [Example 76, 1-Adamantan-1-yl-2-(1-oxy-pyridin-2-ylmethanesulfonyl)-ethanone] | > 60 | 225 to 227.5
25 | O=C(COc1cccnc1)C12CC3CC(CC(C3)C1)C2 [Example 61, 1-Adamantan-1-yl-2-(pyridin-3-yloxy)-ethanone] | > 60 | 73 to 75
